In patent US7776862B2, “Pyridyl and phenyl substituted piperazine-piperidines with CXCR3 antagonist activity” (Schering Corporation, priority 2005, dated 2010):

Molecular target: T1, human CXCR3 (N-delta 4) (Homo sapiens, UniProt P49682)
T1 construct: CD8 leader; Flag tag; expressed in transfected cells; membranes used
T1 sequence (P49682 5-368 limits assumed): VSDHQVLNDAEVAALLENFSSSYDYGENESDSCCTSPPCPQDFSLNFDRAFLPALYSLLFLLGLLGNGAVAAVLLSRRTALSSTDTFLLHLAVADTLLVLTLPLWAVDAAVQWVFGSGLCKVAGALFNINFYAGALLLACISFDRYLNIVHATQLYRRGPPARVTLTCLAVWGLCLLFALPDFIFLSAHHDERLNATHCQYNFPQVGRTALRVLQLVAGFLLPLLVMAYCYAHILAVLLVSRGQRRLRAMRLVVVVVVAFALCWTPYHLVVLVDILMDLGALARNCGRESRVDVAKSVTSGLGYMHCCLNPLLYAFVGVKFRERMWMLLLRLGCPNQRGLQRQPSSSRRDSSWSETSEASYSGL
Test: Human CXCR3 (N-delta 4) scintillation proximity assay (SPA), [125I] IP-10 binding
Details: IC50 rating; Ba/F3-hCXCR3 (N-delta 4) membranes, 25 pM [125I] IP-10
Excerpt: The inventive compounds can readily be evaluated to determine activity at the CXCR3 receptors by known methods, such as, for example, development of a human CXCR3 (N-delta 4) Binding Assay.
Cloning and expression of human CXCR3 (N-delta 4):
The DNA encoding human CXCR3 was cloned by PCR using human genomic DNA (Promega, Madison, Wis.) as a template. The PCR primers were designed based on the published sequence of human orphan receptor GPR9 (1) with incorporated restriction sites, a Kozak consensus sequence, CD8 leader and Flag tag. The PCR product was subcloned into the mammalian expression vector pME18Sneo, a derivative of the SR-alpha expression vector (designated as pME18Sneo-hCXCR3 (N-delta 4).
IL-3-dependent mouse pro-B cells Ba/F3 were transfected by electroporation in 0.4 ml Dulbecco's PBS containing 4×10^6 cells with 20 μg of pME18Sneo-hCXCR3 (N-delta 4) plasmid DNA. Cells were pulsed at 400 Volts, 100 OHMs, 960 μFd. The transfected cells were under selection with 1 mg/ml G418 (Life Technologies, Gaithersburg, Md.). […] IP-10 (NEN Life Science Products, Boston, Mass.).
Preparation of Ba/F3-hCXCR3 (N-delta 4) membranes:
Ba/F3 cells expressing human CXCR3 (N-delta 4) were pelleted and resuspended in the lysis buffer containing 10 mM HEPES, pH 7.5 and Complete® protease inhibitors (1 tablet per 100 ml) (Boehringer Mannheim, Indianapolis, Ind.) at a cell density of 20×10^6 cells per ml. […] Large cellular debris was removed by centrifugation at 1,000×g. Cell membrane in the supernatant was sedimented at 100,000×g. The membrane was resuspended in the lysis buffer supplemented with 10% sucrose and stored at −80° C. Total protein concentration of the membrane was determined by BCA method from Pierce (Rockford, Ill.).
Human CXCR3 (N-delta 4) scintillation proximity assay (SPA):
The beads were spun down, washed once, resuspended in the binding buffer and transferred to a 96-well Isoplate (Wallac, Gaithersburg, Md.). […] IP-10 with tested compounds in a series of titration were added to start the reaction.

Compound | IC50
CC(c1ccc(C#N)cc1)N1CCC(N2CCN(c3ncc(C(=O)NCc4ccc(F)c(F)c4)cc3Cl)CC2)CC1 (stereo not shown) [compound 172] | > 100 nM
N#Cc1ccc(C(=O)N2CCC(N3CCN(c4ncc(C(=O)NCc5ccc(F)c(F)c5)cc4Cl)CC3)CC2)cc1 [compound 51] | > 100 nM
O=C(NCc1cccc(F)c1)c1cnc(N2CCN(C3CCN(Cc4ccc(F)cc4F)CC3)CC2)c(Cl)c1 [compound 8] | > 100 nM
CCNC(=O)c1cnc(N2CCN(C3CCN(C(CC)c4ccc(Cl)cc4)CC3)[C@@H](C)C2)c(Cl)c1 (stereo partly shown) [compound 339] | > 100 nM
CCNC(=O)c1cnc(N2CCN(C3CCN(Cc4ccc(Cl)cc4)CC3)[C@@H](C(C)C)C2)c(Cl)c1 [compound 210] | < 25 nM
O=C(NCc1ccc(F)c(Cl)c1)c1cnc(N2CCN(C3CCN(Cc4ccc(F)cc4)CC3)CC2)c(Cl)c1 [compound 144] | 25 to 100 nM
O=C(NCCCc1ccccc1)c1cnc(N2CCN(C3CCN(Cc4ccc(Cl)cc4)CC3)CC2)c(Cl)c1 [compound 82] | > 100 nM
O=C(NCc1ccc(C(F)(F)F)cc1)c1cnc(N2CCN(C3CCN(Cc4ccc(Cl)cc4)CC3)CC2)c(Br)c1 [compound 305] | 25 to 100 nM
COc1ccc(CN2CCC(N3CCN(c4ncc(C(=O)NCc5ccc(F)c(F)c5)cc4Br)CC3)CC2)cc1 [compound 280] | 25 to 100 nM
O=C(NCc1ccccc1)c1cnc(N2CCN(C3CCN(Cc4ccc([N+](=O)[O-])cc4)CC3)CC2)c(Cl)c1 [compound 75] | > 100 nM
COc1ccc(CN2CCC(N3CCN(c4ncc(C(=O)NCc5ccc(Cl)c(Cl)c5)cc4Cl)CC3)CC2)cc1 [compound 124] | 25 to 100 nM
CCCCNC(=O)c1cnc(N2CCN(C3CCN(Cc4ccc(Cl)cc4)CC3)CC2)c(Cl)c1 [compound 177] | > 100 nM
N#Cc1ccc(C(=O)N2CCC(N3CCN(c4ncc(C(=O)NCc5ccc(C(F)(F)F)cc5)cc4Br)CC3)CC2)cc1 [compound 70] | > 100 nM
O=C(NCc1cccc(Cl)c1)c1cnc(N2CCN(C3CCN(Cc4ccc(Cl)c(F)c4)CC3)CC2)c(Cl)c1 [compound 24] | > 100 nM
O=C(NCc1cccc(Cl)c1)c1cnc(N2CCN(C3CCN(Cc4ccc(Cl)cc4)CC3)CC2)c(Cl)c1 [compound 84] | > 100 nM
CNC(=O)c1cnc(N2CCN(C3CCN(Cc4ccc(Cl)cc4Cl)CC3)[C@@H](C)C2)c(Cl)c1 [compound 255] | < 25 nM
N#Cc1ccc(C(=O)N2CCC(N3CCN(c4ncc(C(=O)NCc5ccc(C(F)(F)F)cc5)cc4Cl)CC3)CC2)cc1 [compound 2] | > 100 nM

The remaining lines, values ahead:

IC50 | Compound
> 100 nM | CCC(=NOC)c1cnc(N2CCN(C3CCN(Cc4ccc(Cl)cc4F)CC3)[C@@H](CC)C2)c(Cl)c1 [compound 455]
> 100 nM | CC[C@H]1CN(c2ncc(C(C)OC(C)=O)cc2Cl)CCN1C1CCN(Cc2ccc(Cl)cc2F)CC1 (stereo partly shown) [compound 451]
25 to 100 nM | C[C@H]1CN(c2ncc(C(=N)N)cc2Cl)CCN1C1CCN(Cc2ccc(Cl)cc2)CC1 [compound 429]
25 to 100 nM | CCNC(=O)N(Cc1cnc(N2CCN(C3CCN(Cc4ccc(Cl)cc4F)CC3)[C@@H](CC)C2)c(Cl)c1)C1CC1 [compound 423]
< 25 nM | CCNC(=O)NCc1cnc(N2CCN(C3CCN(Cc4ccc(Cl)cc4F)CC3)[C@@H](CC)C2)c(Cl)c1 [compound 368]
< 25 nM | CC[C@H]1CN(c2ncc(CNC(=S)NC3CC3)cc2Cl)CCN1C1CCN(Cc2ccc(Cl)cc2F)CC1 [compound 374]
< 25 nM | CC[C@H]1CN(c2ncc(CO)cc2Cl)CCN1C1CCN(Cc2ccc(Br)cc2)CC1 [compound 375]
> 100 nM | C[C@H]1CN(c2ncc(C(=O)N3CCCCC3)cc2Cl)CCN1C1CCN(Cc2ccc(Cl)cc2)CC1 [compound 355]
25 to 100 nM | CC[C@H]1CN(c2ncc(C(=O)C3CC3)cc2Cl)CCN1C1CCN(Cc2ccc(Cl)cc2F)CC1 [compound 419]
25 to 100 nM | CCNC(=N)c1cnc(N2CCN(C3CCN(Cc4ccc(Cl)cc4)CC3)[C@@H](C)C2)c(Cl)c1 [compound 430]
> 100 nM | CNC(=O)c1cnc(N2C[C@H](C)N(C3CCN(Cc4ccc(Cl)cc4F)CC3)C[C@H]2C)c(Cl)c1 [compound 352]
